Laboratory results published in US8901118B2, “Compounds and methods for kinase modulation, and indications therefor” (Plexxikon Inc., priority 2010, dated 2014).

Legend:
[1] = biological target: T1, BCR-NTRK1 BaF3 cells (Homo sapiens, UniProt P04629); assay: BaF3 BCR-NTRK1 cell proliferation assay (ATPlite); type: cell-based; details: read-out: Inhibition of Cell Proliferation IC50, BCR/BaF3 TrkA
T1 construct: fused on or other part: P11274 (Breakpoint cluster region protein)
Method in brief: (§1)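 ATP-based luminescence (ATPlite), read after 10 min at room temperature, served as a proxy for cell number, and IC50 was fitted against compound concentration. Before that, cells were treated for 3 days with an 8-point 1:3 dilution series starting at 10 μM. BaF3 cells were plated at 10,000/well without IL-3, and MV-4-11 cells at 25,000/well.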

[2] = biological target: CYP2C9 (Homo sapiens, UniProt P11712); assay: CYP2C9 inhibition (fluorescent substrate MFC); type: in vitro ADME; details: read-out: Cyp IC50 2C9
Chain of CYP2C9 (P11712 whole entry): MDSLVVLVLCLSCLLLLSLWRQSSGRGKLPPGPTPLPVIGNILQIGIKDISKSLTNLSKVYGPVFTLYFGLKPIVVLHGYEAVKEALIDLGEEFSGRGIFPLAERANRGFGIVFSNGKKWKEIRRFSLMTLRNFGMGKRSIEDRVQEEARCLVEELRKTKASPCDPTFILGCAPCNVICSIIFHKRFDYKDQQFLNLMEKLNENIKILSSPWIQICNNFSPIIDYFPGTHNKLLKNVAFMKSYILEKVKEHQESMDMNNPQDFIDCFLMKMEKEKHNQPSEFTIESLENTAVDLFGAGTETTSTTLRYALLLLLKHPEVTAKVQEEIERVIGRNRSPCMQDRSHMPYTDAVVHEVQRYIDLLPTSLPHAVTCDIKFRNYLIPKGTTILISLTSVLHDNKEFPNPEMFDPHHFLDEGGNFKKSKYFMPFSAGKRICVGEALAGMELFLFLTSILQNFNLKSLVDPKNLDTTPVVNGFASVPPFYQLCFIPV
Method in brief: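 Test compounds, 10-point 1:1 serial dilutions in NADPH-regenerating cofactor mix, were preincubated 10 min at 37° C before recombinant enzyme and fluorogenic substrate reactions at 37° C (CYP1A2 15 min; CYP2C9 45 min; CYP2C19, 2D6 30 min). Product fluorescence was read at 409 ex with 460 em (1A2, 2C19) or 530 em (2C9, 2D6), and IC50 fitted from signal versus concentration.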

[3] = biological target: T2, BCR-KIT BaF3 cells (Homo sapiens, UniProt P10721); assay: BaF3 BCR-KIT cell proliferation assay (ATPlite); type: cell-based; details: read-out: Inhibition of Cell Proliferation IC50, BCR/BaF3 Kit
T2 construct: fused on or other part: P11274 (Breakpoint cluster region protein)
T2 sequence (P10721 589-937): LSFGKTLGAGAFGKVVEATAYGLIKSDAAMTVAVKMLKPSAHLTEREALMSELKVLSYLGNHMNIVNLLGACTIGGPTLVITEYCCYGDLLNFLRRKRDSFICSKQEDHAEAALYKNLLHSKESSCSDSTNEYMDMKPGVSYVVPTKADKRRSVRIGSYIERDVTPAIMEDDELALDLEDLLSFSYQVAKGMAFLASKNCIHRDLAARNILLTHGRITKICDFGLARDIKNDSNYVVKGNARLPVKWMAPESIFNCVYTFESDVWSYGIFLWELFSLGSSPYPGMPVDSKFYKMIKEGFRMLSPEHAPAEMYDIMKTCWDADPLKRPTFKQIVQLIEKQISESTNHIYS
Method in brief: as §1

[4] = biological target: T3, BCR-NTRK2 BaF3 cells (Homo sapiens, UniProt Q16620); assay: BaF3 BCR-NTRK2 cell proliferation assay (ATPlite); type: cell-based; details: read-out: Inhibition of Cell Proliferation IC50, BCR/BaF3 TrkB
T3 construct: fused on or other part: P11274 (Breakpoint cluster region protein)
T3 sequence (Q16620 538-807): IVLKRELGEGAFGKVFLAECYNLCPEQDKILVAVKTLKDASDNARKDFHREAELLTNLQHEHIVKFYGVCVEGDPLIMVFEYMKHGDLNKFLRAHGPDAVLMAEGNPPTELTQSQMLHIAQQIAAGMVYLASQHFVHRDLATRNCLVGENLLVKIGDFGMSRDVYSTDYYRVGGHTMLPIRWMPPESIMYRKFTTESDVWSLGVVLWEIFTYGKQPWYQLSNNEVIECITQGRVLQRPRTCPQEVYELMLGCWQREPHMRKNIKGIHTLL
Method in brief: as §1

T1 sequence (P04629 510-781): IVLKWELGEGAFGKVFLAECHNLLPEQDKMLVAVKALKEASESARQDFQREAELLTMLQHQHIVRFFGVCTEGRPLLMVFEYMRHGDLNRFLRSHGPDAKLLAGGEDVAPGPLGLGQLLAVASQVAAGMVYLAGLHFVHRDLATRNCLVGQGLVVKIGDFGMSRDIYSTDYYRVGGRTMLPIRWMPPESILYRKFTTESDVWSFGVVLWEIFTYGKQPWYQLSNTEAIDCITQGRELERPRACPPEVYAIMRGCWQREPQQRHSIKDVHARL

IC50 [1] | IC50 [2] | IC50 [3] | IC50 [4] | SMILES
< 100 nM | < 5000 nM | < 1000 nM | < 100 nM | COc1cncc(Nc2ccc(C(=O)c3c[nH]c4ncnc(NC5CC5)c34)c(F)n2)c1 [Compound P-4107, [4-(cyclopropylamino)-7H-pyrrolo[2,3-d]pyrimidin-5-yl]-[2-fluoro-6-[(5-methoxy-3-pyridyl)amino]-3-pyridyl]methanone]
< 1000 nM | < 5000 nM | > 1000 nM | < 1000 nM | CNc1ncnc2[nH]cc(C(=O)c3ccc(Nc4cncc(OC)c4)nc3F)c12 [Compound P-4108, [2-fluoro-6-[(5-methoxy-3-pyridyl)amino]-3-pyridyl]-[4-(methylamino)-7H-pyrrolo[2,3-d]pyrimidin-5-yl]methanone]
< 1000 nM | 5000 to 10000 nM | < 1000 nM | < 1000 nM | CC(C)Nc1ncnc2[nH]cc(C(=O)c3ccc(NC4CCCCC4)nc3Cl)c12 [Compound P-4109, [2-chloro-6-(cyclohexylamino)-3-pyridyl]-[4-(isopropylamino)-7H-pyrrolo[2,3-d]pyrimidin-5-yl]methanone]
> 1000 nM | < 5000 nM | < 1000 nM | > 1000 nM | CNc1ncnc2[nH]cc(C(=O)c3ccc(NC4CCCCC4)nc3Cl)c12 [Compound P-4110, [2-chloro-6-(cyclohexylamino)-3-pyridyl]-[4-(methylamino)-7H-pyrrolo[2,3-d]pyrimidin-5-yl]methanone]
< 10 nM | 5000 to 10000 nM | < 1000 nM | < 10 nM | Cc1ccc(Nc2ccc(C(=O)c3c[nH]c4ncnc(NC5CCCCC5)c34)c(F)n2)cn1 [Compound P-4111, [4-(cyclohexylamino)-7H-pyrrolo[2,3-d]pyrimidin-5-yl]-[2-fluoro-6-[(6-methyl-3-pyridyl)amino]-3-pyridyl]methanone]
< 100 nM | < 5000 nM | > 1000 nM | < 100 nM | Cc1ccc(Nc2ccc(C(=O)c3c[nH]c4ncnc(NCC(F)(F)F)c34)c(F)n2)cn1 [Compound P-4112, [2-fluoro-6-[(6-methyl-3-pyridyl)amino]-3-pyridyl]-[4-(2,2,2-trifluoroethylamino)-7H-pyrrolo[2,3-d]pyrimidin-5-yl]methanone]
< 100 nM | < 5000 nM | < 1000 nM | < 100 nM | CNc1ncnc2[nH]cc(C(=O)c3ccc(Nc4ccc(C)nc4)nc3F)c12 [Compound P-4115, [2-fluoro-6-[(6-methyl-3-pyridyl)amino]-3-pyridyl]-[4-(methylamino)-7H-pyrrolo[2,3-d]pyrimidin-5-yl]methanone]
< 10 nM | > 10000 nM | < 100 nM | < 10 nM | CCc1ccc(Nc2ccc(C(=O)c3c[nH]c4ncnc(NC5CCOCC5)c34)c(F)n2)cn1 [Compound P-4116, [6-[(6-ethyl-3-pyridyl)amino]-2-fluoro-3-pyridyl]-[4-(tetrahydropyran-4-ylamino)-7H-pyrrolo[2,3-d]pyrimidin-5-yl]methanone]
< 10 nM | 5000 to 10000 nM | < 100 nM | < 10 nM | CCc1ccc(Nc2ccc(C(=O)c3c[nH]c4ncnc(NC(C)C)c34)c(F)n2)cn1 [Compound P-4117, [6-[(6-ethyl-3-pyridyl)amino]-2-fluoro-3-pyridyl]-[4-(isopropylamino)-7H-pyrrolo[2,3-d]pyrimidin-5-yl]methanone]
< 10 nM | > 10000 nM | < 100 nM | < 10 nM | CCc1ccc(Nc2ccc(C(=O)c3c[nH]c4ncnc(NCC5CC5)c34)c(F)n2)cn1 [Compound P-4118, [4-(cyclopropylmethylamino)-7H-pyrrolo[2,3-d]pyrimidin-5-yl]-[6-[(6-ethyl-3-pyridyl)amino]-2-fluoro-3-pyridyl]methanone]
< 10 nM | > 10000 nM | < 100 nM | < 10 nM | CCc1ccc(Nc2ccc(C(=O)c3c[nH]c4ncnc(NCCOC)c34)c(F)n2)cn1 [Compound P-4119, [6-[(6-ethyl-3-pyridyl)amino]-2-fluoro-3-pyridyl]-[4-(2-methoxyethylamino)-7H-pyrrolo[2,3-d]pyrimidin-5-yl]methanone]
< 10 nM | < 5000 nM | < 1000 nM | < 10 nM | CCc1ccc(Nc2ccc(C(=O)c3c[nH]c4ncnc(NCC(F)(F)F)c34)c(F)n2)cn1 [Compound P-4120, [6-[(6-ethyl-3-pyridyl)amino]-2-fluoro-3-pyridyl]-[4-(2,2,2-trifluoroethylamino)-7H-pyrrolo[2,3-d]pyrimidin-5-yl]methanone]
< 10 nM | > 10000 nM | < 100 nM | < 10 nM | CCc1ccc(Nc2ccc(C(=O)c3c[nH]c4ncnc(NCC(C)C)c34)c(F)n2)cn1 [Compound P-4121, [6-[(6-ethyl-3-pyridyl)amino]-2-fluoro-3-pyridyl]-[4-(isobutylamino)-7H-pyrrolo[2,3-d]pyrimidin-5-yl]methanone]
< 10 nM | 5000 to 10000 nM | < 100 nM | < 10 nM | CCCNc1ncnc2[nH]cc(C(=O)c3ccc(Nc4ccc(CC)nc4)nc3F)c12 [Compound P-4122, [6-[(6-ethyl-3-pyridyl)amino]-2-fluoro-3-pyridyl]-[4-(propylamino)-7H-pyrrolo[2,3-d]pyrimidin-5-yl]methanone]
< 10 nM | > 10000 nM | < 100 nM | < 10 nM | CCNc1ncnc2[nH]cc(C(=O)c3ccc(Nc4ccc(CC)nc4)nc3F)c12 [Compound P-4123, [4-(ethylamino)-7H-pyrrolo[2,3-d]pyrimidin-5-yl]-[6-[(6-ethyl-3-pyridyl)amino]-2-fluoro-3-pyridyl]methanone]
< 10 nM | < 5000 nM | < 100 nM | < 10 nM | CCc1ccc(Nc2ccc(C(=O)c3c[nH]c4ncnc(NC)c34)c(F)n2)cn1 [Compound P-4124, [6-[(6-ethyl-3-pyridyl)amino]-2-fluoro-3-pyridyl]-[4-(methylamino)-7H-pyrrolo[2,3-d]pyrimidin-5-yl]methanone]
< 10 nM | > 10000 nM | < 100 nM | < 10 nM | CCc1ccc(Nc2ccc(C(=O)c3c[nH]c4ncnc(NC5CC5)c34)c(F)n2)cn1 [Compound P-4125, [4-(cyclopropylamino)-7H-pyrrolo[2,3-d]pyrimidin-5-yl]-[6-[(6-ethyl-3-pyridyl)amino]-2-fluoro-3-pyridyl]methanone]
< 10 nM | > 10000 nM | < 100 nM | < 10 nM | COc1ccc(Nc2ccc(C(=O)c3c[nH]c4ncnc(NC5CC5)c34)c(F)n2)cn1 [Compound P-4126, [4-(cyclopropylamino)-7H-pyrrolo[2,3-d]pyrimidin-5-yl]-[2-fluoro-6-[(6-methoxy-3-pyridyl)amino]-3-pyridyl]methanone]
< 1000 nM | > 10000 nM | < 100 nM | < 100 nM | Fc1cc(Cc2c[nH]c3ncnc(NC4CC4)c23)cnc1NC1CCC(F)(F)CC1 [Compound P-4127, N-cyclopropyl-5-[[6-[(4,4-difluorocyclohexyl)amino]-5-fluoro-3-pyridyl]methyl]-7H-pyrrolo[2,3-d]pyrimidin-4-amine]
